Results on 1 compound are retold here after article PMC7403980, “Anti-Inflammatory Effects of the Novel PIM Kinase Inhibitor KMU-470 in RAW 264.7 Cells through the TLR4-NF-κB-NLRP3 Pathway” (International Journal of Molecular Sciences, 2020).

SMILES strings stand for the structures.

For orientation: IC50 means the midpoint of a concentration-inhibition curve.

For one assay, the system named is NF-κB. In words: LPS-induced phosphorylation of NF-κB in RAW 264.7 cells (Western blot). It is filed as cell-based, murine. Conditions: KMU-470 0.5 and 1 μM 30 min, LPS 50 ng/mL 6 h. How it is done: Figure 5 Effect of KMU-470 on LPS-induced phosphorylation of MAPKs/ IKKs/ NF-κB in RAW 264.7 cells. (A) Cells were pre-treated with 1μM of KMU-470 for 24 h and stimulated with LPS (50 ng/mL) at the indicated times. (C) Cells were pre-treated with 0.5 and 1μM of KMU-470 for 30 min prior to LPS treatment. Total proteins were isolated after 6 h exposure to LPS (50 ng/mL). The protein expression level of MAPKs, p-IKKα/β, and p-NF-κB were assessed using Western blot analyses. (B,D) The relative optical densities of MAPKs, p-IKKα/β, and p-NF-κB bands were analyzed by the Image-J program. *** p < 0.001.
RAW 264.7 cells were pre-treated with KMU-470 (0.5–1 μM/mL) for 24 h and stimulated with LPS (50 ng/mL) for 6 h. After stimulation, total cells were harvested, washed with PBS buffer, and then the total protein was extracted with a RIPA buffer (0.1 mM sodium orthovanadate, 137 mM NaCl, 15 mM EGTA, 0.1% Triton X-100, 25 mM MOPS, 15 mM MgCl2, 100 μM phenylmethylsulfonyl fluoride, and 20 μM leupeptin, adjusted to pH 7.2). […] Immunoreactive proteins were detected using the ELC Western blot detection system kit (Millipore). Signal intensity was measured using the Chemi Image documentation system (Fusion Fx7, VILBER LOUTMAT). Protein expression levels were quantified using the Image J program.

A further assay relates to pro-IL-1β. Put plainly: LPS-induced pro-IL-1β protein expression in RAW 264.7 cells (Western blot). Conditions: KMU-470 0.1, 0.5, 1 μM 30 min, LPS 50 ng/mL 6 h. It is filed as cell-based, murine. How it is done: Figure 2 Effect of PIM inhibition on lipopolysaccharide (LPS)-mediated inflammatory response in RAW 264.7 cells. (A) RAW 264.7 cells transfected with negative siRNA or PIM-1 siRNA for 72 h and then treated with LPS (50 ng/mL) for 6 h. Whole cell lysates were isolated and used to measure the protein expression levels of PIM-1, pro-IL-1β, p-Bad, and β-actin by Western blot analysis. […] Total RNA was isolated, and used to measure the mRNA expression levels of IL-1b and β-actin by RT-PCR analysis. *** p < 0.001, ** p < 0.01.
Figure 6 Inhibitory effect of KMU-470 on LPS-induced up-regulation of pro-inflammatory cytokines and activation of NLRP3 inflammasome in RAW 264.7 cells. (A–C) Cells were treated with KMU-470 for 30 min and stimulated with LPS 50 ng/mL for 6 h. The levels of IL-1β, TNF-α, and IL-6 were determined using real time PCR. *** p < 0.001, *p < 0.05. (D) Cells were pre-treated with 0.1, 0.5, and 1 μM of KMU-470 for 30 min and treated with LPS 50 ng/mL for 6 h, respectively. […]
RAW 264.7 cells were pre-treated with KMU-470 (0.5–1 μM/mL) for 24 h and stimulated with LPS (50 ng/mL) for 6 h. […] Immunoreactive proteins were detected using the ELC Western blot detection system kit (Millipore). Signal intensity was measured using the Chemi Image documentation system (Fusion Fx7, VILBER LOUTMAT). Protein expression levels were quantified using the Image J program. […]
(A western blot detects proteins with antibodies after separation by electrophoresis.)

The next assay has as its target T1, PIM-1 (Homo sapiens, UniProt P11309).
T1 construct: purchased Life Technologies (Carlsbad, CA, USA)
Put plainly: PIM kinase IMAP fluorescence polarization IC50 determination. It is filed as biochemical. Conditions: ATP 30 μM; average of two independent experiments; read-out: Inhibitory Activity IC50 PIM-1. How it is done: The recombinant PIM kinase, human 5-FAM-labelled Bad peptide substrate, and ATP were prepared in a reaction buffer containing 10 mM HEPES (pH 7.2), 10 mM MgCl2, 0.05% NaN3, 0.01% Triton X-100, and 2 mM DTT. […] Reagents were added to the plate as follows: 2.5 μL compound, 2.5 μL PIM kinase, 2.5 μL ATP, and 2.5 μL 5-FAM-labelled Bad peptide substrate (a final concentration of 100 nM). The final concentrations of ATP in the kinase reactions were 30 μM, 5 μM, and 20 μM for PIM1, PIM2, and PIM3, respectively. […] Kinase reactions were incubated at room temperature for 90 min, and then the reactions were stopped by the addition of 20 μL of IMAP binding reagent (solution containing 75% Buffer A: 25% Buffer B, and a 1 in 600 dilution of beads). After quenching, the plates were incubated at room temperature for 2 h, and then the fluorescence polarization measurements were carried out on an Infinity F200 (Tecan, Männedorf, Zürich, Switzerland). The percentage of inhibition was calculated for each compound concentration and the data were fitted to the equation of a 4-parameter logistic curve. IC50 values were obtained using GraphPad Prism (GraphPad Software, Inc., La Jolla, CA, USA).
On the technique in general: Fluorescence polarisation rises when a labelled molecule tumbles more slowly, as on binding a larger partner.

A further assay concerns TNF-α. Put plainly: LPS-induced TNF-α mRNA in RAW 264.7 cells (real time PCR). In kind it is cell-based, murine. Conditions: KMU-470 30 min, LPS 50 ng/mL 6 h. How it is done:
Figure 6 Inhibitory effect of KMU-470 on LPS-induced up-regulation of pro-inflammatory cytokines and activation of NLRP3 inflammasome in RAW 264.7 cells. (A–C) Cells were treated with KMU-470 for 30 min and stimulated with LPS 50 ng/mL for 6 h. The levels of IL-1β, TNF-α, and IL-6 were determined using real time PCR. *** p < 0.001, *p < 0.05. (D) Cells were pre-treated with 0.1, 0.5, and 1 μM of KMU-470 for 30 min and treated with LPS 50 ng/mL for 6 h, respectively. Whole cell lysates were isolated and used to measure the protein expression levels of pro-IL-1β and β-actin by Western blot analysis. (E) Cells were pre-treated with 0.1, 0.5, and 1 μM of KMU-470 for 30 min and treated with LPS 50 ng/mL for 6 h, respectively. Whole cell lysates were isolated and used to measure the protein expression levels of […], ASC, pro-caspase-1, pro-IL-1β, and β-actin by Western blot analysis.
Total RNA was isolated using TriZol reagent (Life Technologies; Gaithersburg, MD, USA) according to the manufacturer’s protocol. Total RNA absorbance was quantified by using Nanodrop 1000 (Thermo Fisher Scientific, Waltham, MA, USA). […] Real time quantitative PCR was performed by using the SYBR green premix (Roche Diagnostics, Mannheim, Germany) on the LightCycler 480 PCR (system Roche Diagnostics, Mannheim, Germany). […]
Background: Real-time PCR tracks product formation cycle by cycle.

T1 sequence (P11309 whole entry, species assumed): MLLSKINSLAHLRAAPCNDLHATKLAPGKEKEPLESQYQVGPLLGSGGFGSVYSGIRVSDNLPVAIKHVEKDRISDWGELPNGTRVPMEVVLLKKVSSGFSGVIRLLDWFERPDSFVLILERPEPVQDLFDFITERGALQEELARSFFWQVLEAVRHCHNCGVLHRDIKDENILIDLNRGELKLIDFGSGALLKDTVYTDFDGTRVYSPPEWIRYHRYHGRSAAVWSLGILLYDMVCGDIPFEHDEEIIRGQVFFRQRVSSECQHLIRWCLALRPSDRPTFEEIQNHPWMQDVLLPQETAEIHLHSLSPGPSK

For `CN(C)CCNc1cncc(-c2ccc3c(c2)/C(=C/c2cnc[nH]2)C(=O)N3)n1` [KMU-470, (Z)-3-((1H-Imidazol-5-yl)methylene)-5-(6-((2-(dimethylamino)ethyl)amino)pyrazin-2-yl)indolin-2-one], in the assay on NF-κB, the “LPS-induced phosphorylation of NF-κB” value was “significantly reduced”. Further, the “LPS-induced up-regulation of IL-1β protein” value in the assay on pro-IL-1β (RAW 264.7 cells (Figure 6D)) was “reduced”. In the assay on pro-IL-1β (RAW 264.7 cells (Figure 6E)), the “Expression of pro-IL-1β protein compared with LPS alone group” value is given as “marked decrease”. Moreover, the IC50 on PIM-1 came out at 5.6 nM. Further, the “LPS-induced up-regulation of TNF-α (mRNA)” value in the assay on TNF-α is recorded as “significantly decreased”.
